Measured values reported in US9944669B2, “Fumarate-CO-releasing molecule hybrids, their use in the treatment of inflammatory or cardiovascular diseases and their process of preparation” (UNIVERSITE PARIS EST CRETEIL VAL DE MARNE, priority 2014, dated 2018).
Counter-ions that a name gives are not always drawn.

Assays:
[1] = test system: BV2 cells challenged with lipopolysaccharide (LPS); assay: Nitrite production in BV2 cells challenged with LPS (Griess method); assay type: cell-based
Description: […] At the end of the incubation, nitrite levels were measured using the Griess method.^12,14 Briefly, cell plates were centrifuged at 10,000×g for 5 min and the cell-free supernatant was incubated with an equal volume of Griess reagent (2 mM N-(1-naphtyl)ethylenediamide, 30 mM sulfanilamide and 140 mM o-phosphoric acid) for 10 min at room temperature. The absorbance was measured at 560 nm. Concentrations of nitrite (μM) were calculated from a standard curve of sodium nitrite.

HO-1 = HO-1 protein expression in THP-1 cells; assay type: cell-based, Human
Description: THP-1 cells were exposed to different concentration of compounds A, B, and C during 6 hours.

TNF-α = TNF-α production in THP-1 cells challenged with LPS; assay type: cell-based, Human; settings: LPS (100 μg/ml), 5 μM compound, 24 h
Description: Human THP-1 cells cultured as in Example 3.3 were treated with LPS (100 μg/ml) alone or in the presence of 5 μM compound C, compound E or the comparative dimethyl fumarate (DMF) for 24 h.

| SMILES | Nitrite levels (μM) LPS + compound ([1]; 5 μM compound, 24 hr incubation with 0.5 μg/ml LPS, mean ± SEM) [µM] | % decrease vs. LPS (nitrite) ([1]; 5 μM compound, 24 hr, LPS) [%] | concentration giving almost the same reduction of nitrite production (compound C vs compound J) ([1]; BV2, LPS 1 μg/ml 24 h) [µM] | concentration needed for the same HO-1 result, as fold of the compound C concentration (5 μM) (HO-1) [fold] | TNF-α production (TNF-α) |
| --- | --- | --- | --- | --- | --- |
| C#CCOC(=O)/C=C/C(=O)OCC [Compound J] | 43.2 ± 1.0 | 50.1 | 5 | 10 | – |
| COC(=O)/C=C/C(=O)OC [dimethyl fumarate (DMF)] | – | – | – | – | did not have any effect |
